Here are results for 5 compounds from patent US8828925B2, “Etoposide and doxorubicin conjugates for drug delivery” (Angiochem Inc., priority 2008, dated 2014).

Data set [1] is described as follows: plasma kinetics after bolus administration. Format: in vivo, CD-1 mice. The conditions noted are these: IV bolus, 20 mg/kg, mice. As to the method: FIG. 8 describes the plasma kinetics of Etop-An2(3:1) following administration as a bolus. Radiolabeled (^125I) Etop-An2 (20 mg/kg) was injected in bolus by intravenous (i.v.) or intraperitoneal (i.p.) routes in CD-1 mice weighing about 25-30 g. The injection solution was composed of 12.5% dimethylsulfoxide (DMSO), 12.5% anhydrous ethanol 25% polyethylene glycol 400 (PEG400) and 50% NaCl/Glycine buffer. At several time intervals (0.5, 1, 2, and 6 hours) the blood was collected by cardiac puncture and animals were sacrificed. After blood centrifugation, the plasma radioactivity was measured in a gamma counter (Wizard 1470 Automatic Gamma Counter). The radioactivity was interpreted as % of injected dose per gram of plasma. Results were plotted using GraphPad prism software and the area under the curve (AUC) for each injection mode was calculated. The bioavailability of intraperitoneal Etop-An2 conjugate was then estimated by dividing the AUC after i.p. injection by the AUC after i.v. injection.

The test system of data set [2] is mouse brain. The conditions noted are these: in vivo.
Method: (§1) The uptake of [^125I]-polypeptides to the luminal side of mouse brain capillaries was measured using the in situ brain perfusion method adapted in our laboratory for the study of agent uptake in the mouse brain.
(§2) Polypeptides were iodinated with standard procedures using iodo-beads from Sigma. Briefly polypeptides were diluted in 0.1 M phosphate buffer, pH 6.5 (PB). Two iodo-beads were used for each protein. These beads were washed twice with 3 mL of PB on a Whatman filter and re-suspended in 60 of PB. ^125I (1 mCi) from Amersham-Pharmacia biotech was added to the bead suspension for 5 min at room temperature. Each iodination was initiated by the addition of the polypeptide (100 μg). After an incubation of 10 min at room temperature, the free iodine was removed by HPLC.
(§3) Briefly, the right common carotid of ketamine/xylazine (140/8 mg/kg i.p.) anesthetized mice was exposed and ligated at the level of the bifurcation of the common carotid, rostral to the occipital artery. The common carotid was then catheterized rostrally with polyethylene tubing filled with heparin (25 U/mL) and mounted on a 26-gauge needle. The syringe containing the perfusion fluid ([^125I]-polypeptides or [^14C]-inulin in Krebs/bicarbonate buffer at a pH7.4 gassed with 95% O2 and 5% CO2) was placed in an infusion pump (Harvard pump PHD 2000; Harvard Apparatus) and connected to the catheter. Prior to the perfusion, the contralateral blood flow contribution was eliminated by severing heart ventricles. The brain was perfused for the indicated times at a flow rate of 1.15 mL/min. After 14.5 min of perfusion, the brain was further perfused for 60 seconds with Krebs buffer to wash the excess of [^125I]-proteins. Mice were then decapitated to terminate perfusion and the right hemisphere was isolated on ice before being subjected to capillary depletion. Aliquots of homogenates, supernatants, pellets and perfusates were taken to measure their contents in [^125I]-conjugates by TCA precipitation and to evaluate the apparent volume of distribution.
Data set [3] concerns SK-HEP-1 cells. As to the kind of experiment: in vitro cell proliferation assay ([3H]-thymidine incorporation), SK-HEP-1. (Incorporation of labelled thymidine or its analogues reports DNA synthesis.)
Method: (§4) For the in vitro cell proliferation assay, between 2.5 and 5×10^4 of U87 or SK-HEP-1 cells were seeded in a 24 well tissue culture microplate in a final volume of 1 mL of medium with 10% serum and incubated for 24 hours at 37° C. and 5% CO2. The medium was then replaced with serum-free medium and incubated overnight. The next morning the agent was freshly dissolved in dimethyl sulfoxide (DMSO) and the medium was replaced with complete medium containing the agent at different concentrations in triplicate. The final concentration of DMSO was 0.1%. The control used was a microplate well with cells and without agent. The cells were incubated for 48 to 72 hrs at 37° C. and 5% CO2. After the incubation, the medium was changed and replaced with 1 mL of complete medium containing [^3H]-thymidine (1 pCi/assay). The plate was incubated at 37° C. and 5% CO2 for 4 hrs. The medium as removed, and the cells were washed with PBS at 37° C. The cells were fixed with a mix of ethanol:acetic acid (3:1), washed with water, and precipitated 3 times with 10% of ice-cold TCA (trichloroacetic acid). Finally 500 μL of PCA (perchloric acid) were added to the wells and the microplates were heated for 30 min at 65° C. and 30 min at 75° C. The contents of each well were then transferred to a scintillation vial with 10 mL of scintillation cocktail and the activity was measured in CPM (count per minute) on a liquid scintillation counter Tri-Carb from Packard.
The subject of data set [4] is SK-HEP-1 cells.
Method: as §4
The target of a further data set is P-gp (Mus musculus, UniProt P21447).
Sequence of P-gp (P21447 whole entry): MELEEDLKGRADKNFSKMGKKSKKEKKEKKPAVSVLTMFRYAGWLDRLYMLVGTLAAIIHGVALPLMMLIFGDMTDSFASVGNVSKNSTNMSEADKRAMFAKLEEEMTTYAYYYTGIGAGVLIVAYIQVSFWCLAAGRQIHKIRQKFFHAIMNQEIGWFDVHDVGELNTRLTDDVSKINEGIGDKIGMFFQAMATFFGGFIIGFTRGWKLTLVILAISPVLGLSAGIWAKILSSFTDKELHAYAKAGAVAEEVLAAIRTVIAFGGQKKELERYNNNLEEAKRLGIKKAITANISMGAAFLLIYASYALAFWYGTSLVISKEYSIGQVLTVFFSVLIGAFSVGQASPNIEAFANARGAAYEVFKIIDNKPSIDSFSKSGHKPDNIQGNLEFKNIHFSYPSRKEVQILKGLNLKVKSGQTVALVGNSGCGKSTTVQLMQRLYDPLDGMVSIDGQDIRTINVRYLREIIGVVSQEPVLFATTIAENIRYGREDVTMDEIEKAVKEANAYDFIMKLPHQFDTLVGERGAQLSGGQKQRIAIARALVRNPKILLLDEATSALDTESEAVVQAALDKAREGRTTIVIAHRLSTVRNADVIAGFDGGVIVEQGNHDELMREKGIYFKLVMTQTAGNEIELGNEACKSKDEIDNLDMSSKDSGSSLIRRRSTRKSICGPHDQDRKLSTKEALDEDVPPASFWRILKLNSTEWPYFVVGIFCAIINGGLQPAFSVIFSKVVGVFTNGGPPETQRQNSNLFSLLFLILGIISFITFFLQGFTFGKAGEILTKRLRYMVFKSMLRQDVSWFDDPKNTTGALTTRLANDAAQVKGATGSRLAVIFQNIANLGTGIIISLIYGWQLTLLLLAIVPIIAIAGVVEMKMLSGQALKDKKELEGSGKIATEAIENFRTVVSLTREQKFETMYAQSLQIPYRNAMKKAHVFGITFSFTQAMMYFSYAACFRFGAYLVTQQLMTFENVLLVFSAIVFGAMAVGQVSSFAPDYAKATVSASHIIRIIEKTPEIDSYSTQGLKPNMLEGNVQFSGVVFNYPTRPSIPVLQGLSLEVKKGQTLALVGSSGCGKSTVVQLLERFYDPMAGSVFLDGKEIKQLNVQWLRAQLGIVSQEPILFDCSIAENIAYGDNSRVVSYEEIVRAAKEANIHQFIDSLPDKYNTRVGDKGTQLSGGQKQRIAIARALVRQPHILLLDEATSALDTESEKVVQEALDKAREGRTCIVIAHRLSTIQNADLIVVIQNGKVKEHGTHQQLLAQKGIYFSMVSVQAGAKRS
In a further data set the test system is U87 cells. As to the kind of experiment: in vitro cell proliferation assay ([3H]-thymidine incorporation), U87. Format: cell-based, human.
Data set [5] can be described thus: tissue distribution after IV bolus. Format: in vivo. The conditions noted are these: thirty minutes after IV bolus, mice, FIG. 12. As to the method:
The effect of conjugation of an agent to a vector on distribution of the agent or the pharmacokinetics of a polypeptide that is conjugated to an agent was evaluated by administering a labeled polypeptide or conjugate to an animal and measuring distribution of the polypeptide or conjugate to organs (e.g., using ^3H or ^125I labeled conjugates) to mice. Similar experiments can be performed with compounds that include any of polypeptides described herein (e.g., the polypeptides described in Table 1 such as AngioPep-3, AngioPep-4a, AngioPep-4b, AngioPep-5, AngioPep-6, and AngioPep-7, or analogs thereof). Here, the unconjugated anticancer agent and the conjugates were injected intravenously to mice as a bolus. Tissues were collected at different times (0.25, 0.5, 1, and 4 hrs) and homogenized. To quantify the amount of ^3H-labeled conjugate, tissue homogenates were digested with tissue solubilizer, and 10 mL of liquid scintillator was added to samples. The amount of the ^125I labeled conjugate, in the different tissues is measured after TCA precipitation. Radioactivity associated with the tissues is quantified. The area under the curve (AUC 0-4) is estimated using the Prism software and is plotted for the different tissues.
FIG. 11 compares the brain distribution of Etop-An2(3:1) versus unconjugated etoposide thirty minutes after IV bolus administration to mice.

In data set [6] the test system is mouse brain. As to the kind of experiment: in situ brain perfusion (brain uptake).
Method: as §1, §2, §3
Data set [7] concerns Lung Carcinoma (NCI-H460). As to the kind of experiment: in vitro cell proliferation assay, NCI-H460. Format: cell-based. The conditions noted are these: Table 5.
For data set [8] the following is noted: literature data (Reddy et al. 2005); cited from earlier work.
Data set [9] relates to U87 cells in nude mice brain. As to the kind of experiment: intracerebral human brain tumor model (U87), survival. Format: in vivo. The conditions noted are these: doxorubicin 6 mg/kg, (DoxSu)3-An2 40 mg/kg i.v. 1× per week. On the procedure: The intracerebral human brain tumor model was established by stereotactic inoculation of 5×10^5 U87 cells in nude mice brain. Female athymic nude mice (Crl:Nu/Nu-nuBR; 20-25 g, 4-6 weeks old; Charles River Canada, St-Constant, QC) were used for tumor models and were maintained in a pathogen-free environment. One hour before surgery, mice received a subcutaneous injection of buprenorphine (0.1 mg kg^−1). For tumor cell inoculation, mice were anesthetized by i.p. injection of ketamine/xylazine (120/10 mg kg^−1) and placed in a stereotactic apparatus (Kopf; Tujunga, Calif.). A burr hole was drilled 1.5 mm anterior and 2.5 mm lateral to the bregma. The cell suspension in 5 μL of serum free cell culture medium was injected over a 5 minute period using a Hamilton syringe at a depth of 3.5 mm.
Drug treatment started 3 days post-inoculation (Table 8). […] Drug solutions were prepared in dextrose 5% water (D5W). Injection solutions were freshly prepared before each administration. Clinical signs of disease progression and body weights were monitored everyday. When mice reached terminal endpoints (20% of decrease in body weight), they were sacrificed by carbon dioxide asphyxiation.

Setting [10] is: Homo sapiens, SK-HEP1, read-out: IC50 (nM) Hepatocarcinoma (SK-Hep-1).
The mark [11] stands for this setting: Homo sapiens, U-87 MG, Table 5, incubation 48 to 72 hrs, read-out: IC50 (nM) Glioblastoma (U87).

pIC50: −log10 of the molar value. Where two headings read alike, the source gives them in different places.

Method for P-gp: as §1
Briefly, the right common carotid of ketamine/xylazine (140/8 mg/kg i.p.) anesthetized mice was exposed and ligated at the level of the bifurcation of the common carotid, rostral to the occipital artery. The common carotid was then catheterized rostrally with polyethylene tubing filled with heparin (25 U/mL) and mounted on a 26-gauge needle. The syringe containing the perfusion fluid ([^125I]-polypeptides or [^14C]-inulin in Krebs/bicarbonate buffer at a pH7.4 gassed with 95% O2 and 5% CO2) was placed in an infusion pump (Harvard pump PHD 2000; Harvard Apparatus) and connected to the catheter. Prior to the perfusion, the contralateral blood flow contribution was eliminated by severing heart ventricles. The brain was perfused for the indicated times at a flow rate of 1.15 mL/min. After 14.5 min of perfusion, the brain was further perfused for 60 seconds with Krebs buffer to wash the excess of [^125I]-proteins. Mice were then decapitated to terminate perfusion and the right hemisphere was isolated on ice before being subjected to capillary depletion. […]

For the compound `COc1cc([C@@H]2c3cc4c(cc3[C@@H](O[C@@H]3O[C@@H]5CO[C@@H](C)O[C@H]5[C@H](O)[C@H]3OC(=O)CCCC(=O)NCCCC[C@H](NC(=O)CNC(=O)[C@H](CCCNC(=N)N)NC(=O)[C@H](CO)NC(=O)CNC(=O)CNC(=O)[C@H](Cc3ccc(O)cc3)NC(=O)[C@H](Cc3ccccc3)NC(=O)[C@H](Cc3ccccc3)NC(=O)[C@@H](NC(=O)CCCC(=O)O[C@H]3[C@H](O[C@@H]5c6cc7c(cc6[C@@H](c6cc(OC)c(O)c(OC)c6)[C@H]6C(=O)OC[C@@H]65)OCO7)O[C@@H]5CO[C@@H](C)O[C@H]5[C@@H]3O)[C@@H](C)O)C(=O)N[C@@H](CCCNC(=N)N)C(=O)N[C@@H](CC(N)=O)C(=O)N[C@@H](CC(N)=O)C(=O)N[C@@H](Cc3ccccc3)C(=O)N[C@@H](CCCCNC(=O)CCCC(=O)O[C@H]3[C@H](O[C@@H]5c6cc7c(cc6[C@@H](c6cc(OC)c(O)c(OC)c6)[C@H]6C(=O)OC[C@@H]65)OCO7)O[C@@H]5CO[C@@H](C)O[C@H]5[C@@H]3O)C(=O)N[C@H](C(=O)N[C@@H](CCC(=O)O)C(=O)N[C@@H](CCC(=O)O)C(=O)N[C@@H](Cc3ccc(O)cc3)C(=O)O)[C@@H](C)O)[C@H]3COC(=O)[C@H]23)OCO4)cc(OC)c1O` [Etop-An2(3:1), ((2″-Glutaryl)-Etop)3-(Angiopep2)], in data set [1], the “AUC0-∞ (hr°μg/mL)” value is reported as 82 hr°μg/mL. Besides, in data set [1], the “Elim. Rate Const.” value amounted to 1.6 h⁻¹. Moreover, the “T1/2α” value in data set [1] was 25.8 min. Moreover, the “Vd (slope) relative to the corresponding unconjugated drug” value in the data set with mouse brain [2] is reported as “higher”. Further, the IC50 (usually the concentration needed to halve the response being measured) was determined as 160 nM in the data set on SK-HEP-1 cells [3] (read-out: IC50 (nM) 24 hours, SK-HEP-1, 24 hours); 52 nM in the data set with SK-HEP-1 cells [3] (read-out: IC50 (nM) 72 hours, SK-HEP-1, 72 hours); 453 nM in the data set with U87 cells (U-87 Cells, 24 hours, read-out: IC50 (nM) 24 hours); 151 nM in the data set on U87 cells (U-87 Cells, 48 hours, read-out: IC50 (nM) 48 hours); 164 nM with U87 cells (U-87 Cells, 72 hours, read-out: IC50 (nM) 72 hours). Also, the pIC50 (commonly the IC50 on a negative log10 scale, so that one unit is a factor of ten) in the data set with SK-HEP-1 cells [4] was 7.23. Moreover, the P-gp substrate status entry with P-gp is recorded as “not a P-gp substrate”. The “concentration in the tissues studied versus unconjugated etoposide” value in data set [5] is recorded as “increased concentration in the tissues studied”.
In the case of `COc1cc(C2c3cc4c(cc3[C@@H](O[C@@H]3O[C@@H]5CO[C@@H](C)O[C@H]5[C@H](O)[C@H]3O)[C@H]3COC(=O)[C@H]23)OCO4)cc(OC)c1OC(=O)CN(C)C` (stereo partly drawn) [EtopDMG, Etoposide 4′-Dimethylglycine], the IC50 stood at 62 nM in the data set with SK-HEP-1 cells [3] (setting [10]); 90 nM in data set [7] (Homo sapiens, NCI-H460); 145 nM with U87 cells (setting [11]). The “Brain Kin” value in the data set on mouse brain [6] is 9e-05 mL/s/g.
Regarding “(Etoposide-4′-Dimethylglycine-2″-Glutaric)3-Angiopep-2 Conjugate [EtopDMG-An2(3:1)]”, the IC50 with SK-HEP-1 cells [3] (read-out: IC50 (nM) Hepatocarcinoma (SK-Hep-1), Table 5, incubation 48 to 72 hrs) was determined as 48 nM; in [7] it was 148 nM; in the data set with U87 cells (Table 5, incubation 48 to 72 hrs, read-out: IC50 (nM) Glioblastoma (U87)), 330 nM.
In the case of `COc1cc([C@@H]2c3cc4c(cc3[C@@H](O[C@@H]3O[C@@H]5CO[C@@H](C)O[C@H]5[C@H](O)[C@H]3O)[C@H]3COC(=O)[C@H]23)OCO4)cc(OC)c1O` [Etoposide], the IC50 with SK-HEP-1 cells [3] (Homo sapiens, SK-HEP1, 24 h, read-out: IC50 (nM) 24 hours) was determined as 116 nM; with SK-HEP-1 cells [3] (Homo sapiens, SK-HEP1, 72 h, read-out: IC50 (nM) 72 hours), 50 nM; in the data set on U87 cells (Homo sapiens, U-87 MG, U-87 Cells, 24 hours, read-out: IC50 (nM) 24 hours), 160 nM; in the data set on U87 cells (Homo sapiens, U-87 MG, U-87 Cells, 48 hours, read-out: IC50 (nM) 48 hours), 221 nM; with U87 cells (Homo sapiens, U-87 MG, U-87 Cells, 72 hours, read-out: IC50 (nM) 72 hours) it was 145 nM. The pIC50 with SK-HEP-1 cells [4] was 7.25. Moreover, the T1/2α in data set [8] is 7.8 min.
`COc1cccc2c1C(=O)c1c(O)c3c(c(O)c1C2=O)C[C@@](O)(C(=O)CO)C[C@@H]3O[C@H]1C[C@H](N)[C@H](O)[C@H](C)O1` [Doxorubicin, doxorubicin]: in the data set with mouse brain [2] (pH 7.4), the “Brain Kin” value amounted to 0.00028 mL/s/g. The “Survival (days) Mean Trial 1” value in data set [9] (Trial 1) came to 20.6 days. In addition, the “Survival (days) Median Trial 1” value in data set [9] (Trial 1, treatment from 3 days post-inoculation) is listed as 21 days. Further, the “Survival (days) Median Trial 2” value in data set [9] (Trial 2) was 23 days. Besides, the IC50 in the data set with SK-HEP-1 cells [3] (setting [10]) was 10 nM; in data set [7] (Homo sapiens, NCI-H460), 11 nM; in the data set with U87 cells (setting [11]), 18 nM.
